Several values for one entry are separate records, joined by “and”; a condition that tells them apart may be missing. Equal entries are not always repeated.
How the values were obtained:
Assay type in all cases: in vivo
[1] = tested on: rabbit eye (anterior chamber paracentesis); experiment: Clinical evaluation by slit lamp (clinical score), rabbit paracentesis model; set-up: key to Clinical Score −180 min / Clinical Score −5 min / Clinical Score +115 min: 0=normal; 1=discrete dilatation of iris and conjunctival vessels; 2=moderate dilatation of iris and conjunctival vessels; 3=intense iridal hyperemia with flare in the anterior chamber; 4=intense iridal hyperemia with flare in the anterior chamber and presence of fibrinous exudates; details: for Clinical Score −5 min: 5 min before the first paracentesis; for Clinical Score −5 min / Clinical Score +115 min / Clinical Score −180 min: single eyes; for Clinical Score +115 min: 5 min before the second paracentesis
Prostaglandin E2 (PGE2) = Prostaglandin E2 (PGE2) measurement in aqueous humor, rabbit paracentesis model; details: second paracentesis, group mean
Description: (§1) Each rabbit was placed in a restraint device and tagged with the alphanumeric code. The formulations were instilled (50 μl) into the conjunctival sac of both eyes 180, 120, 90 and 30 min before the first paracentesis; then 15, 30, 90 min after the first paracentesis. To perform the first paracentesis the animals were anaesthetized by intravenous injection of 5 mg/kg Zoletil® (Virbac; 2.5 mg/kg tiletamine HCl and 2.5 mg/kg zolazepam HCl) and one drop of local anesthetic (Novesina®, Novartis) was administered to the eye. Anterior chamber paracentesis was performed with a 26 G needle attached to a tuberculin syringe; the needle was introduced into the anterior chamber through the cornea, taking care not to damage the tissues. Two hours after the first paracentesis, the animals were sacrificed with 0.4 ml Tanax® (Intervet International B.V.) and the second paracentesis was performed. About 100 μl of aqueous humor were removed at the second paracentesis. Aqueous humor was immediately split in four aliquots and stored at −80° C. until analysis. Then both eyes were enucleated and the iris-ciliary body was carefully excised, placed in polypropylene tubes, and stored at −80° C. until analysis.
For the quantitative determination of PGE2 in the aqueous humor we used the PGE2 Immunoassay kit (R&D Systems; Cat.No. KGE004; Lot.No. 240010). Eleven microliters or 16 μl of aqueous humor were diluted to 110 μl or 160 μl with the calibrator diluent solution provided with the kit. One hundred microliters of samples and of standards were load into a 96-well plate and recorded in a plate layout. Samples were treated following the assay procedure described in the kit. A microplate reader (GDV, Italy; model DV 990 B/V6) set at 450 nm (wavelength correction at 540 nm) was used for making the calibration and analyzing the samples.

Leukocytes (PMN) = Leukocytes (PMN) measurement in aqueous humor, rabbit paracentesis model; details: for PMN numbers in aqueous humor, Mean: second paracentesis, group mean
Description: as §1
For the determination of the number of leukocytes we used a haemocytometer (Improved Neubauer Chamber; Bright-line, Hausser Scientific) and a Polyvar 2 microscope (Reichert-Jung).

protein in aqueous humor = experiment: Protein measurement in aqueous humor, rabbit paracentesis model; details: for Protein levels in aqueous humor (raw data): samples collected at the second paracentesis, single eyes; for Protein levels in aqueous humor, Mean: second paracentesis, group mean
Description: as §1
For protein concentration determination in the aqueous humor we used the Protein Quantification Kit (Fluka; Cat.No. 77371; Lot.No. 1303129). Five microliters of aqueous humor were diluted to 100 μl with water. Twenty microliters of samples and of standards were load into a 96-well plate and recorded in a plate layout. Samples were treated following the assay procedure described in the kit. A microplate reader (GDV, Italy; model DV 990 B/V6) set at 670 nm was used for making the calibration and analyzing the samples.

Myeloperoxidase (MPO) = Myeloperoxidase (MPO) activity in iris-ciliary body, rabbit paracentesis model; details: for MPO activity in iris-ciliary body, Mean / MPO activity in iris-ciliary body: samples collected after the second paracentesis; for MPO activity in iris-ciliary body, Mean: group mean; for Δ/min (mean of the slope of the line recorded every 15 sec for 5 min) / MPO activity in iris-ciliary body: individual eyes
Description: 3.9 g of NaH2PO4 2H2O were dissolved in a volumetric flask to 500 ml with water. The pH was adjusted to pH=6 with 3N NaOH.
0.5 g of hexa-decyl-trimethyl-ammonium bromide was dissolved in 100 ml phosphate buffer.
The solution was prepared freshly. Ten microliters of H2O2 (30 wt. %) were diluted to 1 ml with water (solution A). 7.5 mg o-dianisidine 2HCl was dissolved in 45 ml of phosphate buffer and 75 μl of solution A were added.
as §1
The activity of MPO was measured as previously described by Williams et al.[5] The iris-ciliary bodies were carefully dried, weighed and immersed in 1 ml of hexa-decyl-trimethyl-ammonium bromide solution. Then, the samples were sonicated for 10 sec on ice by a ultrasound homogenizer (HD 2070, Bandelin electronic), freeze-thawed three times, sonicated for 10 sec and centrifuged at 14,000 g for 10 min to remove cellular debris. An aliquot of the supernatant (40-200 μl) was diluted to 3 ml with the o-dianisidine 2HCl/H2O2 solution. The change in absorbance at 460 nm was continuously monitored for 5 min by a spectrophotometer (UV/Vis Spectrometer Lambda EZ 201; Perkin Elmer). The slope of the line (Δ/min) was determined for each sample and used to calculate the number of units of MPO in the tissue as follows:
Values were expressed as units of MPO/g of tissue.

[2] = tested on: rabbit eye (anterior chamber paracentesis); experiment: Pupillary diameter measurement, rabbit paracentesis model; details: for Pupillary diameter T1: −180 min: 50 μl drops, −180 min (basal); for Pupillary diameter T1: −180 min / Pupillary diameter T2: −5 min / Pupillary diameter T3: +115 min: single eyes; for Pupillary diameter T2: −5 min: 5 min before the first paracentesis; for Pupillary diameter T3: +115 min: 5 min before the second paracentesis; for Pupillary diameter Mean Δ(T3 − T1): group mean, n=8 eyes
Description: as §1
The pupillary diameter of both eyes was measured with a Castroviejo caliper 180 min and 5 min before the first paracentesis and 5 min before the second paracentesis.

[3] = 0.5% topical, +115 min, N=8 eyes

CCOC(=O)O[C@]1(C(=O)OCCl)CC[C@H]2[C@@H]3CCC4=CC(=O)C=C[C@]4(C)[C@H]3[C@@H](O)C[C@@]21C [loteprednol etabonate]
Clinical Score −5 min ([1]; 0.5% topical): 0 | Clinical Score +115 min ([1]; 0.5% topical, listed as LE): 2 and 1 | Percentage of eyes with clinical score 1 [1, 3]: 75% | Percentage of eyes with clinical score 2 [1, 3]: 25% | Percentage of eyes with clinical score 0 ([1]; 0.5% topical, −5 min, N=8 eyes): 100% | Percentage of eyes with clinical score 0 ([1]; 0.5% topical, −180 min (basal), N=8 eyes): 100% | Clinical Score −180 min ([1]; 0.5% topical, −180 min (basal)): 0 | Levels of PGE2 in aqueous humor, Mean (Prostaglandin E2 (PGE2); 0.5% topical): 0.672 ng/mL | PMN numbers in aqueous humor (raw data) (Leukocytes (PMN); 0.5% topical, samples collected at the second paracentesis, single eyes, listed as LE): 40 number/μl and 20 number/μl and 30 number/μl | PMN numbers in aqueous humor, Mean (Leukocytes (PMN); 0.5% topical): 28.333 number/μl | Protein levels in aqueous humor (raw data) (protein in aqueous humor; 0.5% topical, listed as LE): 36.14 mg/mL and 39.10 mg/mL and 34.69 mg/mL and 26.10 mg/mL and 26.30 mg/mL and 28.16 mg/mL and 40.90 mg/mL and 39.85 mg/mL | Protein levels in aqueous humor, Mean (protein in aqueous humor; 0.5% topical): 33.905 mg/mL | MPO activity in iris-ciliary body, Mean (Myeloperoxidase (MPO); 0.5% topical): 0.661 MPO Unit/g | Δ/min (mean of the slope of the line recorded every 15 sec for 5 min) (Myeloperoxidase (MPO); 0.5% treatment, 200 μl supernatant aliquot diluted to 3 ml, listed as LE): 0.026 and 0.053 and 0.067 and 0.055 and 0.076 and 0.096 | MPO activity in iris-ciliary body (Myeloperoxidase (MPO); 0.5% treatment, listed as LE): 0.30 Unit/g and 0.51 Unit/g and 0.81 Unit/g and 0.60 Unit/g and 0.73 Unit/g and 1.01 Unit/g | Pupillary diameter T1: −180 min ([2]; 0.5% topical, listed as LE): 6.0 mm and 6.5 mm | Pupillary diameter T2: −5 min ([2]; 0.5% topical, listed as LE): 6.0 mm and 6.5 mm | Pupillary diameter T3: +115 min ([2]; 0.5% topical, listed as LE): 4.5 mm and 5.0 mm and 5.5 mm and 6.0 mm | Pupillary diameter Mean Δ(T3 − T1) ([2]; 0.5% topical): −0.9 mm

CC(C(=O)O)c1ccc(-c2ccccc2)c(F)c1 (stereo not drawn) [flurbiprofen]
Clinical Score −5 min ([1]; 0.03% topical): 0 | Clinical Score +115 min ([1]; 0.03% topical): 2 | Percentage of eyes with clinical score 2 ([1]; 0.03% topical, +115 min, N=8 eyes): 100% | Percentage of eyes with clinical score 0 ([1]; 0.03% topical, −5 min, N=8 eyes): 100% | Percentage of eyes with clinical score 0 ([1]; 0.03% topical, −180 min (basal), N=8 eyes): 100% | Clinical Score −180 min ([1]; 0.03% topical, −180 min (basal)): 0 | Levels of PGE2 in aqueous humor, Mean (Prostaglandin E2 (PGE2); 0.03% topical): 1.189 ng/mL | PMN numbers in aqueous humor, Mean (Leukocytes (PMN); 0.03% topical): 30.000 number/μl | Protein levels in aqueous humor (raw data) (protein in aqueous humor; 0.03% topical, listed as F): 20.78 mg/mL and 28.80 mg/mL and 23.41 mg/mL and 20.21 mg/mL and 17.53 mg/mL and 15.12 mg/mL and 20.52 mg/mL | Protein levels in aqueous humor, Mean (protein in aqueous humor; 0.03% topical): 20.910 mg/mL | MPO activity in iris-ciliary body, Mean (Myeloperoxidase (MPO); 0.03% topical): 0.906 MPO Unit/g | Δ/min (mean of the slope of the line recorded every 15 sec for 5 min) (Myeloperoxidase (MPO); 0.03% treatment, 100 μl supernatant aliquot diluted to 3 ml, listed as F): 0.049 and 0.082 and 0.013 and 0.031 and 0.038 and 0.027 and 0.033 and 0.061 | MPO activity in iris-ciliary body (Myeloperoxidase (MPO); 0.03% treatment, listed as F): 1.10 Unit/g and 1.70 Unit/g and 0.34 Unit/g and 0.75 Unit/g and 0.74 Unit/g and 0.63 Unit/g and 0.73 Unit/g and 1.27 Unit/g | Pupillary diameter T1: −180 min ([2]; 0.03% topical, listed as F): 5.0 mm and 7.0 mm and 6.0 mm and 5.5 mm | Pupillary diameter T2: −5 min ([2]; 0.03% topical, listed as F): 6.0 mm and 6.5 mm and 7.0 mm and 5.5 mm | Pupillary diameter T3: +115 min ([2]; 0.03% topical, listed as F): 4.0 mm and 3.5 mm and 5.5 mm and 5.0 mm and 4.5 mm and 6.0 mm | Pupillary diameter Mean Δ(T3 − T1) ([2]; 0.03% topical): −0.9 mm

Source: US20080058373A1, “Compositions and Methods for Treating or Preventing Glaucoma or Progression Thereof” (priority 2006, published 2008)
